Like-named read-outs stand apart in the source and are kept apart here.
Tests used:
[1] = system: MT4 cells; assay: Cytotoxicity (CC50) in MT4 cells, mock-infected; format: cell-based; conditions: 5 days
Method in brief: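 Mock-infected MT4 cells (2000/well) exposed to compounds for 5 days at 37 °C; cell viability then read as chemiluminescence from CellTiter-Glo after brief room-temperature lysis.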

[2] = biological target: PXR (NR1I2) (Homo sapiens (Human), UniProt O75469); assay: Human PXR activation assay (luciferase reporter, DPX2 cells); format: cell-based; conditions: human; 15 uM; DPX2 cells; % Emax relative to rifampicin, adjusted for DMSO background; read-out: PXR % inh at 15 uM (adjusted)
Description: (§1) Luciferase Reporter Gene Assay.
(§2) A stably transformed tumor cell line (DPX2) was plated on 96-well microtiter plates. […]. The number of viable cells was determined and the reporter gene activity was assessed. […]

[3] = system: HIV-IIIb; assay: Antiviral assay in MT4 cells; format: cell-based; conditions: read-out: EC50
Method in brief: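 MT4 cells infected with HIV-IIIb (0.004 m.o.i.) or mock-infected, then plated at 2000 cells per well with compound. After 5 days at 37 °C, cell viability read by CellTiter-Glo chemiluminescence.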

[4] = biological target: human PXR (Homo sapiens (Human), UniProt O75469); assay: Human PXR activation assay (luciferase reporter, DPX2 cells); format: cell-based; conditions: 15 uM; DPX2 cells; % Emax relative to rifampicin, adjusted for DMSO background
Description: as §1, §2

[5] = biological target: OCT2 (Homo sapiens (Human), UniProt O15244); assay: OCT2 inhibition assay (14C-TEA uptake, OCT2-transfected MDCKII cells); format: cell-based
Description: MDCKII cells were maintained in minimal essential medium (MEM) with 1% Pen/Strep, 10% fetal bovine serum, and 0.25 mg/mL hygromycin B in an incubator set at 37° C., 90% humidity and 5% CO2. 24 hours prior to assay, media containing 5 mM sodium butyrate were added to MDCKII cells in flasks, and cells were grown to 80-90% confluence. On assay day, cells were trypsinized and resuspended in Krebs-Henseleit Buffer (KHB), pH 7.4 at […]. Cells were preincubated for 15 min in assay plate before addition of test compound or substrate.
Test compounds were serially diluted in DMSO and then spiked (2 μL) into in 0.4 mL KHB buffer containing wild-type or OCT2-transfected cells and incubated for 10 minutes. Assay was initiated with the addition of 0.1 mL of 100 μM ^14C-TEA in KHB buffer (20 μM final concentration after mixing). The concentration of TEA is based on the Km. After 10 minutes of incubation, the assay mixture was quenched with addition of 0.5 mL of ice-cold 1×PBS buffer. Samples were then centrifuged at 1000 rpm for 5 min and supernatants were removed. Wash steps were repeated four times with ice-cold PBS. Finally, the cell pellets were lysed with 0.2N NaOH and let sit at room temperature for at least 30 min to ensure complete lysis. Samples were then counted on liquid scintillation counter and dpm counts were used to perform the following calculations. The % inhibition was calculated as follows: % inhibition=[1−{[OCT2]i−[WT]ni}/{[OCT2]ni−[WT]ni}]*100 where, [OCT2]i represents the dpm count in the presence of test compound for either OCT2 cells, […] of test compound for OCT2 cells and [WT]ni represents the dpm count in the absence of test compound for wild type cells, respectively.

[6] = Pharmacokinetics after oral administration to male SD rats; format: in vivo; conditions: Sprague-Dawley, plasma, rat, oral gavage 0.5 mg/kg, solution, read-out: % F (solution)
Description: (§3) Pharmacokinetic analysis was performed on compounds 25b and 39 following intravenous or oral administration to rats.
(§4) The test compounds were formulated in 5% Ethanol, 55% PEG 300, and 40% water at 0.1 mg/mL for IV infusion and for oral dosing.
(§5) Each dosing group consisted of 3 male, Sprague-Dawley rats. At dosing, the animals weighed an average of 0.25 kg. The animals were fasted overnight prior to dose administration and up to 4 hr after dosing.
(§6) For the IV infusion group, the test article was administered by intravenous infusion over 30 min. The rate of infusion was adjusted according to the body weight of each animal to deliver a dose of 0.5 mg/kg. For the oral dosing group, the test article was administered by oral gavage at 5 mL/kg for a dose of 0.5 mg/kg.
For pharmacokinetic analysis of orally administered compounds, serial venous blood samples (approximately 0.3 mL each) were taken from each animal at time points of 0, 0.25, 0.50, 1.0, 2.0, 4.0, 6.0, 8.0, 12.0 24.0, 48.0 and 72 hours after dosing. Blood samples were collected, prepared and analyzed in a similar way to the intravenous studies described above. Non-compartmental pharmacokinetic analysis was performed on the plasma concentration-time data. In Table 2, F (%) refers to oral bioavailability.

[7] = system: HIV-1 N155H/Q148R; format: cell-based; conditions: MT2 cells; mean EC50 mutant / mean EC50 wt
Description: (§7) For the antiviral assay utilizing MT-2 cells, 50 μL of 2× test concentration of 3-fold serially diluted compound in culture medium with 10% FBS was added to each well of a 96-well plate (9 concentrations) in triplicate. MT-2 cells were infected with wild-type or mutant variants of HIV-1 for 3 hours using a volume of viral inoculum determined to produce 90% cell killing. Fifty microliters of infected cell suspension in culture medium with 10% FBS (˜1.5×10^4 cells) was then added to each well containing 50 μL of serially diluted compound. The plates with HIV-infected cultures were then incubated at 37° C. for 5 days in the presence of the tested compounds. After 5 days of incubation, 100 μL of CellTiter-Glo™ Reagent (catalog # G7571, Promega Biosciences, Inc., Madison, Wis.) was added to each well. Cell lysis was carried out by incubating at room temperature for 10 min followed by a chemiluminescence read-out.
(§8) The chemiluminescence readout from the 10-point antiviral dose response was analyzed directly by curve fitting with equation (I) to determine the EC50.
(§9) where y=Cell Survival, M=maximum cell survival enabled by drug protection, H=baseline cell survival without drug protection, n=Hill coefficient of the antiviral dose response, m=Hill coefficient of the cytotoxicity dose response, and [I]=inhibitor concentration.
(§10) EC50 values (mean±standard deviation) were calculated from at least three independent experiments performed in triplicate. The fold-change in antiviral activity of tested compounds was calculated as a ratio of the mean EC50 for each mutant virus divided by the mean EC50 of the control WT virus.

[8] = system: HIV-1 G140S/Q148R; format: cell-based; conditions: MT2 cells; mean EC50 mutant / mean EC50 wt
Description: as §7, §8, §9, §10

[9] = system: HIV-1 E92Q/N155H; format: cell-based; conditions: MT2 cells; mean EC50 mutant / mean EC50 wt
Description: as §7, §8, §9, §10

[10] = system: HIV-1 E138K/Q148K; format: cell-based; conditions: MT2 cells; mean EC50 mutant / mean EC50 wt
Description: as §7, §8, §9, §10

[11] = system: wild-type HIV-1; assay: Antiviral assay in MT-2 cells, wild-type HIV-1; format: cell-based; conditions: Human immunodeficiency virus 1, 120 h; MT2 cells, wild-type HIV-1, 5 days; read-out: wt
Description: as §7, §8, §9, §10

[12] = Pharmacokinetics after intravenous infusion to male SD rats; format: in vivo; conditions: Sprague-Dawley, plasma, rat, IV infusion 0.5 mg/kg
Description: as §3, §4, §5, §6
For pharmacokinetic analysis of intravenously administered compounds, serial venous blood samples (approximately 0.3 mL each) were taken from each animal at 0, 0.250, 0.483, 0.583, 0.750, 1.50, 3.00, 6.00, 8.00, 12.0, 24.0, 48 and 72 hours after dosing. The blood samples were collected into Vacutainer™ tubes containing EDTA-K2 as the anti-coagulant and were immediately placed on wet ice pending centrifugation for plasma. An LC/MS/MS method was used to measure the concentration of the test compound in plasma. An aliquot of 50 μL of each plasma sample was added to a clean 96 well plate, and 200 μL of cold acetonitrile/internal standard solution (ACN)/(ISTD) was added. After protein precipitation, an aliquot of 110 μL of the supernatant was transferred to a clean 96-well plate and diluted with 300 μL of water. An aliquot of 10 μL of the above solution was injected into a ABSciex API-4000 triple quadrupole LC/MS/MS system utilizing a HyPurity C18 HPLC column (30×2.1 mm, 3μ), from Thermo-Hypersil (Part #22103-032130). An Agilent 1200 series binary pump (P/N G1312A Bin Pump) was used for elution and separation, and an HTS Pal autosampler (LEAP Technologies, Carrboro, N.C.) was used for sample injection. A API-4000 triple quadrupole mass spectrometer was utilized in multiple reaction monitoring mode (Applied Biosystems, Foster City, Calif.). Liquid chromatography was performed using two mobile phases: mobile phase A contained 0.1% formic acid and 1% isopropylamine in aqueous solution, and mobile phase B contained […]. Non-compartmental pharmacokinetic analysis was performed on the plasma concentration-time data. The resulting data are shown in the first three columns of Table 2. In Table 2, Cl refers to clearance, which characterizes the rate at which drug is removed from plasma. The lower the clearance of a drug is, the longer the elimination half-life is in the body. Vss refers to the steady state volume of distribution and indicates how well a drug is distributed into the tissues. The larger the Vss is, the longer the elimination half-life is in the body. MRT refers to mean residence time, which is a measure of the average time molecules exist in the body.

[13] = Plasma protein binding (equilibrium dialysis); format: in vitro ADME; conditions: human, plasma (sodium EDTA) dialysed against buffer; 2 μM in plasma vs. buffer, 24 hours at 37° C.; read-out: % Free HP/Buffer
Description: Plasma protein binding was determined using a HTD96b equilibrium dialyzer with a plate base, stainless steel pressure plate and Teflon bock. 9 Teflon bars, labeled sequentially from A through I, were assembled with two stainless steel connecting rods. Membranes were placed between two Teflon bars, with the membrane placed approximately 2 mm below the top edge of the bar and the lower membrane edge overlapped the bottom of all wells. The membrane was soaked for about 20 minutes in water, about 20 minutes in ethanol (30/70 v/v) and rinsed with water three times to remove the ethanol. It was soaked in PBS for at least 30 minutes. Plasma in sodium EDTA (Bioreclamation or equivalent) was used. The Plasma (not pH-adjusted) was stored at −80° C. and thawed at room temperature before use. The stock solution of the compounds tested was at 200 μM in DMSO. The quench solution used was 50 nM of an internal standard in 100% ACN. To prepare a 2 μM solution of the compound tested in plasma, 5 μL of a 200 μM stock solution was added to 495 μL of blank plasma. 100 μL plasma was added with 2 μM of test compound into one side of the well. 100 μL of buffer (for plasma vs. buffer) was added into another side of the well. The 96-well plate was covered using an adhesive sealing film and incubated for 24 hours at 37° C. under slow rotation. This procedure was replicated for each compound. 50 μL of plasma sample was put into a 96 well plate, 50 μL of buffer was added. 50 μL of buffer was put into a 96 well plate. 50 μL of plasma was added. 300 μL of quench solution was added and the plate sealed and shaken for 15 minutes. The material was centrifuged for 30 minutes at 3000 RPM and ˜250 μL was transferred into a short plate. The samples were analyzed by LC/MS. The resulting data is shown in the last row of Table 3 as “% Free” which corresponds to the percentage of compound not protein bound.

Chain of PXR (NR1I2) (O75469 whole entry): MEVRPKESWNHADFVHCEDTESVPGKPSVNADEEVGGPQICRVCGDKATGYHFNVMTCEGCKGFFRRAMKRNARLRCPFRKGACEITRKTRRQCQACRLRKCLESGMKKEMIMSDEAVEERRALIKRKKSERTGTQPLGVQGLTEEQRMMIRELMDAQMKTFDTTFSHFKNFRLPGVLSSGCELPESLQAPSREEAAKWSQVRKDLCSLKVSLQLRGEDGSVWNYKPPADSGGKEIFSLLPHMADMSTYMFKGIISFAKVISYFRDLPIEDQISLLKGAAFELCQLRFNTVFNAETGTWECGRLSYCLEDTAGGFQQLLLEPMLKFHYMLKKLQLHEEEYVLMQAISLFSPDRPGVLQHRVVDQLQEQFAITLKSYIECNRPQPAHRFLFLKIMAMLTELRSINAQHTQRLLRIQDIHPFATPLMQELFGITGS
Chain of human PXR (O75469 whole entry): as above
Chain of OCT2 (O15244 whole entry): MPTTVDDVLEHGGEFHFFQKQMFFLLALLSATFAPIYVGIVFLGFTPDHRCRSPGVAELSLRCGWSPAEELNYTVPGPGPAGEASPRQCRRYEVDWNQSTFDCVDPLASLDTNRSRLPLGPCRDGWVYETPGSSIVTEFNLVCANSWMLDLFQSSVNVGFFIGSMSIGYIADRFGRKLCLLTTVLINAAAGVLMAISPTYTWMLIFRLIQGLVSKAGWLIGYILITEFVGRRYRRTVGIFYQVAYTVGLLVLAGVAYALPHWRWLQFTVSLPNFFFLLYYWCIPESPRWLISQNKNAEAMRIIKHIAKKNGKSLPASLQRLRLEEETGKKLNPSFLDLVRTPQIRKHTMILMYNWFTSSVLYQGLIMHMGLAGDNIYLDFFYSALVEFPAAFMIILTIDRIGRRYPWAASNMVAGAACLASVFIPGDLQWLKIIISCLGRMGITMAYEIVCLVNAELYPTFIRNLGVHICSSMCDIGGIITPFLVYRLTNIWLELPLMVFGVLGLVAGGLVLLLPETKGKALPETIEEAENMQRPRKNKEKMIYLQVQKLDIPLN

| SMILES | CC50 [1] [µM] | inhibition at 24 h, 15 µM [2] [%] | EC50 ([3]; MT4 cells, HIV-IIIb, 5 days) [µM] | PXR % inh at 15 uM (adjusted) [4] [%] | EC50 [3] [µM] | IC50 [5] [µM] | bioavailability [6] [%] | Resistance fold shift N155H/Q148R vs. wild type [7] [fold shift] | Resistance fold shift G140S/Q148R vs. wild type [8] [fold shift] | Resistance fold shift E92Q/N155H vs. wild type [9] [fold shift] | Resistance fold shift E138K/Q148K vs. wild type [10] [fold shift] | EC50 [11] [µM] | MRT [12] [h] | clearance [12] [L/h/kg] | Vd ([12]; read-out: Vss) [L/kg] | fraction unbound at 24 h, 2 µM [13] |
| --- | --- | --- | --- | --- | --- | --- | --- | --- | --- | --- | --- | --- | --- | --- | --- | --- |
| CN1C(=O)c2c(O)c(=O)c(C(=O)NCc3c(F)cc(F)cc3F)cn2[C@@H]2CCCC[C@@H]21 [Compound 4] | 10.5 | 65 | 0.00253 | – | – | – | – | – | – | – | – | – | – | – | – | – |
| O=C(NCc1c(F)cc(F)cc1F)c1cn2c(c(O)c1=O)C(=O)N(CC(F)(F)F)[C@@H]1COCC[C@@H]12 [Compound 32] | 57.1 | – | – | 19 | 0.0038 | 10 | – | – | – | – | – | – | – | – | – | – |
| C[C@@H]1CCO[C@H]2Cn3cc(C(=O)NCc4ccc(F)cc4F)c(=O)c(O)c3C(=O)N12 [Dolutegravir, reference compound] | – | – | – | – | – | – | 84 | 2.5 | 3.7 | 1.9 | 8.2 | 0.0017 | 12.4 | 0.01 | 0.17 | 0.01 |
